Structures can show the parent of a compound that is named as a salt.
What was measured:
Assay type in all cases: cell-based, mouse
MOR133-1 = test: High-throughput multiplexed odorant screening (Smell-seq), barcode RNA-seq readout; settings: OR MOR133-1; pair called as hit, FDR=1%
Excerpt: (§1) We subsequently screened 182 odorants at three concentrations in triplicate against the OR cell library, the equivalent of ˜85,000 individual luciferase assays including controls (FIG. 10A, Table 2). Each 96-well plate in the assay contained positive control odorants and solvent DMSO wells for normalization (FIG. 16). We used the EdgeR software package to determine differentially responsive ORs based on a negative binomial model of barcode counts. We found 114 OR-odorant interactions (out of 7,200 possible), 81 of which are novel, and 24 interactions with 15 orphan receptors (FIG. 10C, FIG. 17 and Supplementary Table 4) (FDR=1%; Benjamini-Hochberg correction). Overall 28 of 39 receptors were activated by at least one odorant, and 68 of 182 odorants activated at least one OR (Table 4). We chose 37 interactions of at least 1.2 fold induction to test individually with a previously developed transient OR assay that has several important differences (FIG. 18). Of the 28 interactions called as hits at an FDR of 1%, 21 of them replicated in this orthogonal system (FIG. 17). […] Conversely, we also detect 14 interactions that this previous study tested, but called negative.

Olfr62 = test: as above; settings: OR Olfr62; pair called as hit, FDR=1%
Excerpt: as §1

MOR112-1 = test: as above; settings: OR MOR112-1; pair called as hit, FDR=1%
Excerpt: as §1

MOR13-1 = test: High-throughput multiplexed odorant screening (Smell-seq), 96-well, barcode RNA-seq readout; settings: OR MOR13-1; pair called as hit, FDR=1%
Excerpt: We find that chemicals with similar features activate similar sets of ORs, including those receptors we deorphanize in this study. For example, the previously orphan MOR13-1 is activated by four chemicals with polar groups attached, in three cases, to stiff non-rotatable scaffolds. Another example is, MOR19-1, which has clear affinity for the salicylate functional group. To better understand how chemical similarity relates to receptor activation without relying on incomplete and sometimes arbitrary chemical descriptors, we used a previously validated computational autoencoder to represent each chemical in a ˜292 dimensional latent space, allowing nearly lossless compression of chemical structure (Data not shown). We find chemicals that activate the same OR tend to cluster distinctly (FIG. 10D, FIG. 20). […] Many, but not all of the receptors. […] Understanding the space of chemicals that activates each OR establishes the groundwork for prediction of novel odorant-OR interactions.
(§2) 10. High-Throughput Odorant Screening
(§3) The OR library cell line was thawed from a liquid nitrogen frozen stock into a T-225 flask (Corning) three days before seeding into a 96-well plate for screening. The library was seeded at 6,666 cells per well in 100 ul of DMEM. 24 hours later a working concentration of 1 ug/ml of doxycycline in DMEM was added to the wells. 24 hours after induction, the media was removed from each plate and replaced with 25 ul of odorant diluted in OptiMEM. Each odor was added at three different concentrations (10 uM, 100 uM, 1 mM) in triplicate with the same amount of final DMSO (1%). Each plate contained two control odorants at a three concentration (10 uM, 100 uM, 1 mM) in triplicate and three wells containing 1% DMSO dissolved in media. The library was incubated with odorants for three hours in a cell culture incubator with the lids removed.
After odor incubation, media was pipetted out of the plates and cells were lysed by adding 25 uL of ice-cold Cells-to-cDNA II Lysis Buffer (Thermo Fisher) and pipetting up and down to homogenize and lyse cells. The lysate was then heated to 75° C. for 15 minutes and flash frozen with liquid nitrogen and kept at −80 C until further processing. Then 0.5 uL DNase I (New England Biolabs) was added to lysate, and incubated at 37° C. for 15 minutes. […]
For each batch, qPCR was performed on a few wells (OL005F and OL013) with SYBR FAST qPCR Mastermix to determine the number of cycles necessary for PCR based library preparation. […] Library concentrations were quantified using a Tape Station 2200 and a Qubit (Thermo Fisher). The libraries were sequenced with two index reads and a single end 75-bp read on a NextSeq 500 in high-output mode (Illumina). […]

MOR142-1 = test: High-throughput multiplexed odorant screening (Smell-seq), barcode RNA-seq readout; settings: OR MOR142-1; pair called as hit, FDR=1%
Excerpt: as §1

MOR119-1 = test: as above; settings: OR MOR119-1; pair called as hit, FDR=1%
Excerpt: as §1

MOR4-1 = test: as above; settings: OR MOR4-1; pair called as hit, FDR=1%
Excerpt: as §1

MOR23-1 = test: as above; settings: OR MOR23-1; pair called as hit, FDR=1%
Excerpt: as §1

MOR5-1 = test: High-throughput multiplexed odorant screening (Smell-seq), 96-well, barcode RNA-seq readout; settings: OR MOR5-1; pair called as hit, FDR=1%
Protocol: as §2, §3
(§4) After odor incubation, media was pipetted out of the plates and cells were lysed by adding 25 uL of ice-cold Cells-to-cDNA II Lysis Buffer (Thermo Fisher) and pipetting up and down to homogenize and lyse cells. The lysate was then heated to 75° C. for 15 minutes and flash frozen with liquid nitrogen and kept at −80 C until further processing. Then 0.5 uL DNase I (New England Biolabs) was added to lysate, and incubated at 37° C. for 15 minutes. To anneal the RT primer, 5 ul of lysate from each well was combined with 2.5 ul of 10 mM dNTPs (New England Biosciences), 1 ul of 2 uM gene specific RT primer (OL003), and 1.5 ul of H2O. The reaction was heated to 65° C. for 5 min and cooled back down to 0° C. After annealing, 1 ul of M-MuLV Reverse Transcriptase (Enzymatics), 1 ul of buffer, and 0.25 ul of RNase Inhibitor (Enzymatics) were added to each reaction. Reactions were incubated at 42° C. for 60 min and the RT enzyme was heat inactivated at 85° C. for 10 min.
(§5) For each batch, qPCR was performed on a few wells (OL005F and OL013) with SYBR FAST qPCR Mastermix to determine the number of cycles necessary for PCR based library preparation. The reaction and cycling conditions are optimized as follows: 95° C. for 3 minutes, 40 cycles of 95° C. for 3 seconds and 60° C. for 20 seconds. After qPCR, 5 ul of each RT reaction was combined with 0.4 ul of 10 uM primers containing sequencing adaptors (OL005F and OL013), 10 ul of NEB-Next Q5 Mastermix (New England Biosciences) and 4.2 ul H2O, the PCR was carried out according to the manufacturer's protocol. The forward primer contains the P7 adaptor sequence and an index identifying the well in the assay and the reverse primer contains the P5 adaptor sequence and an index identifying the plate in the assay. PCR products were pooled together by plate and purified with the DNA Clean and Concentrator Kit. Library concentrations were quantified using a Tape Station 2200 and a Qubit (Thermo Fisher). The libraries were sequenced with two index reads and a single end 75-bp read on a NextSeq 500 in high-output mode (Illumina).
(§6) 11. Analysis of Next-Generation Sequencing Data
(§7) Samples were identified via indexing by their PCR indexes adapters unique for each well (5′ end) and unique for each plate (3′ end). The well barcodes followed the 7 bp indexing scheme in (Illumina Sequencing Library Preparation for Highly Multiplexed Target Capture and Sequencing Matthias Meyer, Martin Kircher, Cold Spring Harb Protoc; 2010; doi:10.1101/pdb.prot5448). The plate indexing scheme followed the Illumina indexing scheme. Sequencing data was demultiplexed and 15 bp barcode sequences were counted with only exact matches by custom python and bash scripts.
(§8) 12. Statistical Methods for Calling Hits
(§9) Count data was then analyzed using the differential expression package EdgeR. To filter out ORs with low representation, we set a cutoff that an OR had to contain at least 0.5% of the reads from more than 399 of the 1954 test samples. This filtered out 3 of 42 ORs which were underrepresented in the cell library (MOR172-1, MOR176-1 and MOR181-1). […]

MOR158-1 = test: High-throughput multiplexed odorant screening (Smell-seq), barcode RNA-seq readout; settings: OR MOR158-1; pair called as hit, FDR=1%
Excerpt: as §1

MOR120-1 = test: as above; settings: OR MOR120-1; pair called as hit, FDR=1%
Excerpt: as §1

MOR165-1 = test: as above; settings: OR MOR165-1; pair called as hit, FDR=1%
Excerpt: as §1

MOR203-1 = test: as above; settings: OR MOR203-1; pair called as hit, FDR=1%
Excerpt: as §1

MOR170-1 = test: High-throughput multiplexed odorant screening (Smell-seq), 96-well, barcode RNA-seq readout; settings: OR MOR170-1; pair called as hit, FDR=1%
Protocol: as §2, §3, §4, §5, §6, §7, §8, §9

MOR19-1 [1] = test: Odorant-receptor activation luciferase assay (transient), orthogonal follow-up; settings: interactions called as hits at an FDR of 1% tested individually
Excerpt: We subsequently screened 182 odorants at three concentrations in triplicate against the OR cell library, the equivalent of ˜85,000 individual luciferase assays including controls (FIG. 10A, Table 2). Each 96-well plate in the assay contained positive control odorants and solvent DMSO wells for normalization (FIG. 16). We used the EdgeR software package to determine differentially responsive ORs based on a negative binomial model of barcode counts. We found 114 OR-odorant interactions (out of 7,200 possible), 81 of which are novel, and 24 interactions with 15 orphan receptors (FIG. 10C, FIG. 17 and Supplementary Table 4) (FDR=1%; Benjamini-Hochberg correction). Overall 28 of 39 receptors were activated by at least one odorant, and 68 of 182 odorants activated at least one OR (Table 4). We chose 37 interactions of at least 1.2 fold induction to test individually with a previously developed transient OR assay that has several important differences (FIG. 18). […]
The Dual-Glo Luciferase Assay System (Promega) was used to measure OR-odorant responses as previously described (Zhuang and Matsunami 2008). […] Luminescence was measured using the M1000 plate reader (Tecan). All luminescence values were normalized to Renilla luciferase activity to control for transfection efficiency in a given well. Data were analyzed with Microsoft Excel and R.

MOR19-1 [2] = test: High-throughput multiplexed odorant screening (Smell-seq), 96-well, barcode RNA-seq readout; settings: for OR-odorant interaction called as hit in the multiplexed screen: MOR19-1, odorant at 10 uM, 100 uM, 1 mM in triplicate, 3 hours, FDR=1% (Benjamini-Hochberg); for Minimum Activating Concentration: OR MOR 19-1, pair called as hit, FDR=1%
Excerpt: as §1, §2, §3
as §4, with “After annealing, 1 ul of M-MuLV Reverse Transcriptase (Enzymatics), 1 ul of buffer, and 0.25 ul of RNase Inhibitor (Enzymatics) were added to each reaction. Reactions were incubated at 42° C. for 60 min and the RT enzyme was heat inactivated at 85° C. for 10 min.” left out

MOR9-1 = test: High-throughput multiplexed odorant screening (Smell-seq), barcode RNA-seq readout; settings: OR MOR9-1; pair called as hit, FDR=1%
Excerpt: as §1

MOR131-1 = test: as above; settings: OR MOR131-1; pair called as hit, FDR=1%
Excerpt: as §1

MOR139-1 = test: as above; settings: OR MOR139-1; pair called as hit, FDR=1%
Excerpt: as §1

CCCCCC(=O)CC [3-Octanone]
Minimum Activating Concentration (MOR133-1): 1000 µM

O=Cc1ccccc1 [Benzaldehyde]
Minimum Activating Concentration (Olfr62): 1000 µM | Minimum Activating Concentration (MOR112-1): 1000 µM | Minimum Activating Concentration (MOR13-1): 1000 µM

Cc1occc1SSc1ccoc1C [Bis(2-methyl-3-furyl)disulphide)]
Minimum Activating Concentration (MOR142-1): 1000 µM

CSSCc1ccco1 [Furfuryl methyl disulfide]
Minimum Activating Concentration (MOR119-1): 1000 µM

CCCCCC(=O)O [Hexanoic Acid]
Minimum Activating Concentration (MOR4-1): 1000 µM | Minimum Activating Concentration (MOR23-1): 1000 µM | Minimum Activating Concentration (MOR5-1): 1000 µM

CC(=O)C1(C)CC2=C(CCCC2(C)C)CC1C (stereo not shown) [Iso E Super]
Minimum Activating Concentration (MOR158-1): 1000 µM

CC(C)(O)CCCC1=CCC(C=O)CC1 (stereo not shown) [Lyral]
Minimum Activating Concentration (MOR120-1): 1000 µM

CCCCCCCCCS [Nonanethiol]
Minimum Activating Concentration (MOR120-1): 1000 µM

CCCCCCCCOC=O [Octyl formate]
Minimum Activating Concentration (MOR165-1): 1000 µM

CCCCC(=O)O [Pentanoic Acid]
Minimum Activating Concentration (MOR4-1): 1000 µM | Minimum Activating Concentration (MOR13-1): 1000 µM

CC(=O)OCc1ccc2c(c1)OCO2 [Piperonyl acetate]
Minimum Activating Concentration (MOR203-1): 1000 µM | Minimum Activating Concentration (MOR170-1): 1000 µM

O=C(OCc1ccccc1)c1ccccc1O [benzyl salicylate]
replication of the hit in the orthogonal transient OR luciferase assay (MOR19-1 [1]): did not replicate | OR-odorant interaction called as hit in the multiplexed screen (MOR19-1 [2]): hits | Minimum Activating Concentration (MOR19-1 [2]): 10 µM

CC1COCc2cc3c(cc21)C(C)(C)C(C)C3(C)C (stereo not shown) [galaxolide]
Minimum Activating Concentration (MOR112-1): 100 µM | Minimum Activating Concentration (MOR9-1): 1000 µM | Minimum Activating Concentration (MOR131-1): 1000 µM

CC(C=O)Cc1ccc2c(c1)OCO2 (stereo not shown) [helional]
Minimum Activating Concentration (MOR139-1): 1000 µM | Minimum Activating Concentration (MOR203-1): 1000 µM | Minimum Activating Concentration (MOR170-1): 1000 µM

COC(=O)c1ccccc1O [methyl salicylate]
replication of the hit in the orthogonal transient OR luciferase assay (MOR19-1 [1]): did not replicate | OR-odorant interaction called as hit in the multiplexed screen (MOR19-1 [2]): hits | Minimum Activating Concentration (MOR19-1 [2]): 1000 µM

CCCCCCCCCCOC(C)=O [n-Decyl acetate]
Minimum Activating Concentration (MOR119-1): 100 µM

decanedioic acid (sebacic acid)
Minimum Activating Concentration (MOR165-1): 1000 µM
